Results on six compounds are retold here after US9168297B2, “Regulation of skin pigmentation by neuregulin-1 (NRG-1)” (The United States of America, as Represented by the …, priority 2010, dated 2015).

In one assay the test system is MelanoDerm Skin Model. The assay can be described thus: Melanogenesis in MelanoDerm skin model, L-[14C]tyrosine assay. Type of assay: cell-based, human. The note with it: 30 μM lipoic acid, positive control, means ± SEM, Control 100%. From the text: Fibroblasts regulate the distinctive pigmented and thick morphology of skin on the palms and soles compared to the remainder of the body via a factor they secrete termed DKK1. […] [table]

In assay [1] the test system is MelanoDerm 3-D reconstructed human skin. Briefly: Pigmentation of 3-D reconstructed skin (MelanoDerm), L value and microscopy. The note with it: dark MelanoDerms, 9 days, NRG-1 50 ng/ml with C39 0.5 μM or CI-1033 2 μM, vs control. Type of assay: cell-based. The procedure: Light, Medium, and Dark human epidermal equivalents (MelanoDerm®) were purchased from MatTek Corp. (Ashland, Mass.). MelanoDerms were grown at the air/liquid interface of the maintenance medium MEL-LLMM (MatTek Corp.), and the culture medium was renewed every 2 days. Where noted, MelanoDerms were treated for 9 days with 50 ng/ml NRG-1 (rhNRG-1-β1, R&D Systems, Minneapolis, Minn.) prepared in phosphate-buffered saline (PBS) with 0.1% bovine serum albumin (BSA) and MelanoDerm maintenance medium. The same concentrations of PBS and BSA were used for mock-treated controls.
For the studies where the MelanoDerms were treated with NRG-1 and/or various pan-ERBB inhibitors, Dark MelanoDerms were first incubated with a pan-ERBB inhibitor (0.5 μM Compound 39, EMD Chemicals, Gibbistown, N.J. or 2 μM CI-1033, Selleck Chemicals LLC, US) for 30 minutes or with vehicle (DMSO) only before treatment with 50 ng/ml NRG-1; identical amounts of DMSO (0.02%) were added to all samples. Treatment was renewed every 2 days in fresh medium and was continued for 9 days.
Three dimensional (3-D) reconstructed human skin models (termed MelanoDerms) were used to test the effects of NRG-1 on skin pigmentation. Three types of MelanoDerm, ‘light’ ([…]), ‘medium’ ([…]) and ‘dark’ ([…]), were used to compare the effects of NRG-1 on those three types of skin. In preliminary studies to optimize the concentration of NRG-1 (from 10 to 200 ng/ml were tested, FIG. 10), 50 ng/ml was chosen which was consistent with concentrations of NRG-1 used for other cell types by other groups. NRG-1 was added to the MelanoDerm media at 50 ng/ml and the medium was replenished every 2 days. On day 9, the MelanoDerms treated with NRG-1 were compared to controls treated only with vehicle. Pigmentation of the skin was assessed using the L value, higher L values indicating lighter colors. […] It should be noted that relatively small changes in ΔL can represent relatively large changes in visible skin color. For example, the mean L value of White/Caucasian skin is 67, that of Asians, Pacific-Islanders is 65, that of Hispanic/Latinos is 64, and that of American Indian/Alaska Native is 62. […] In the vehicle-treated control MelanoDerms, melanin pigment was more evenly distributed throughout the entire epidermis and no visible melanin accumulation was observed around melanocytes (FIG. 3B). […] Therefore, NRG-1 leads to visible increases in pigmentation in the MelanoDerms which was greater as the skin had more constitutive pigmentation.

In another assay the test system is HEM-DP melanocytes. Briefly: Melanin content assay (melanin/protein). Type of assay: cell-based, human. The note with it: for Pigmentation: 8-mer peptides 100 nM, every day for 9 days, vs vehicle. The method, then:
FIGS. 6A and 6B are bar graphs illustrating the effect of NRG-1 on the pigmentation of cultured human melanocytes. FIG. 6A) Lightly-pigmented (HEM-LP) and FIG. 6B) Darkly-pigmented (HEM-DP) melanocytes were treated with or without NRG-1 (50 ng/ml) for 1, 3, 5 or 9 days and proteins were extracted from each sample. After centrifugation at 10,000 g for 15 minutes, precipitates were analyzed for melanin content, and the supernatants were analyzed for protein content. Results are the average of three studies±SD; statistically significant differences are indicated.
FIGS. 9A and 9B are digital images illustrating the effect of pan-ERBB inhibitors on NRG-1 action on human melanocytes and MelanoDerms. FIG. 9A) HEM-DP melanocytes were treated for 9 days with 50 ng/ml NRG-1 in the presence of C39 (0.5 μM) or CI-1033 (2 μM) or vehicle (DMSO) alone. The results are the averages of 3 independent studies±SD. FIG. 9B) Dark MelanoDerms were treated for 9 days with 50 ng/ml NRG-1 in the presence of C39 (0.5 μM) or CI-1033 (2 μM) or vehicle (DMSO) alone. L values shown are the average of 3 spots measured in the center of each Melanoderm.
Melanin contents were determined by dissolving cell pellets overnight at room temperature in 200 μl 1 N NaOH, and melanin concentrations were quantitated by absorbance at 405 nm in a SpectraMax 250 ELISA reader (Molecular Devices) using a standard curve generated from synthetic melanin (Sigma-Aldrich, St. Louis, Mo.). Melanin content is expressed as μg melanin per μg protein. Each study was repeated at least three times.
The effects of NRG-1 on the pigmentation of human melanocytes were also examined. […] However, on day 9, when the cells had reached confluence, the pigmentation level of NRG-1-treated HEM-LP melanocytes was about 35% higher than the control (FIG. 6A).
The EGF domain of NRG-1 can activate the NRG-1 receptors. Two exemplary EGF domains of NRG-1 were aligned (SEQ ID NOs: 9 and 10) and 5 different […] peptides within these two sequences were designed (FIG. 12). Darkly-pigmented human epidermal melanocytes (HEM-DP) were treated with each of the […] peptides (100 nM) or the commercially available rhNRG-1 (6.25 nM) or the vehicle only (0.1% BSA in PBS) every other day for 7 days.
In particular, HEM-DP were treated with each of the 8-mer peptides (WC-6, […], amino acids 3-10 of SEQ ID NO: 10; WC-7, […], amino acids 8-15 of SEQ ID NO: 10; WC-8, […], amino acids 12-19 of SEQ ID NO: 10; WC-9, […], amino acids 16-23 of SEQ ID NO: 10; WC-10, […], amino acids 20-27 of SEQ ID NO: 10; 100 nM) or the full length EGF domain of NRG-1 (WC-11, SEQ ID NO: 10, 100 nM) or the commercially available rhNRG-1 (SEQ ID NO: 11, 6.25 nM) or vehicle only (0.1% BSA in PBS) every day for 9 days.

For another assay, the system named is ERBB2. Briefly: ERBB2 protein level by western blotting in melanocytes. Type of assay: cell-based, human. The note with it: HEM-LP and HEM-DP, NRG-1 50 ng/ml together with MG132 120 nM. The procedure:
FIGS. 7A and 7B are digital images illustrating expression of ERBBs after NRG-1 treatment. FIG. 7A) HEM-LP and HEM-DP melanocytes were treated with or without NRG-1 (50 ng/ml) for 5 days, and levels of ERBB2, ERBB3 or ERBB4 were detected by western blotting. Results shown are representative of three studies. FIG. 7B) Expression of ERBB2 was examined in HEM-LP and in HEM-DP melanocytes after 1 or 9 days or treatment with NRG-1 compared to vehicle-treated controls; the results are representative of two independent studies.
FIGS. 8A and 8B are digital images illustrating the mechanism of ERBB2 abrogation after NRG-1 treatment. FIG. 8A) ERBB2 mRNA levels in HEM-LP and in HEM-DP melanocytes were detected by RT-PCR after treatment with or without NRG-1 (50 ng/ml) for 1 day. FIG. 8B) MG132 (120 nM) was added to the melanocyte culture medium to inhibit proteasomal degradation during treatment of HEM-LP and HEM-DP melanocytes with or without NRG-1 (50 ng/ml). Proteins were extracted for each sample, and ERBB2 levels were detected by western blotting. Results are representative of three studies.
Fibroblast cultures in 100-mm dishes were solubilized in appropriate volumes of M-PER mammalian protein extraction reagent (Pierce Biotechnology, Rockford, Ill.) containing a Protease Inhibitor mixture (Roche, Mannheim, Germany) and phosphatase inhibitors. The protein concentration of each extract was measured using a BCA protein assay kit (Pierce, Rockford, Ill.). Cell extracts (20 μg) were separated on 8-16% gradient SDS polyacrylamide gels (Invitrogen, Carlsbad, Calif.), after which proteins were transferred to PVDF membranes (Invitrogen, Carlsbad, Calif.). Membranes were blocked for 1 hour in PBS or Tris buffered saline (TBS) containing 0.1% Tween 20 and 5% (w/v) nonfat dry milk powder and were incubated overnight at 4° C. with the primary antibody in PBS containing 0.1% Tween 20 and 2.5% (w/v) nonfat dry milk powder or in 0.1% Tween-TBS with 5% BSA, depending on the antibody. The following primary antibodies were used: anti-human DKK-1 (0.2 μg/ml), anti-human DKK-3 (0.1 μg/ml), anti-human bFGF (0.1 μg/ml), anti-human SCF (0.1 μg/ml), anti-human mouse monoclonal ERBB3 (1 μg/ml) and anti-human mouse monoclonal ERBB4 (2 μg/ml) antibodies from R&D Systems, neuregulin-1α/β1/2 (C-20) (1:500) and GAPDH (FL-335) (1:10,000) antibodies from Santa Cruz Biotechnology, ERBB2 rabbit monoclonal (1:1000) and phospho-Akt (Ser473) (1:1000) antibodies from Cell Signaling Technology. Membranes were then incubated with an HRP-linked anti-rabbit antibody (GE Healthcare) at 1:10,000 dilution or with an anti-goat antibody (DAKO) at 1:2,000 dilution at room temperature for 1 hour. Antigen-antibody complexes were detected using an ECL-plus Western blotting detection system (GE Healthcare). […]
Background: In western blotting, separated proteins are transferred to a membrane and probed.

Residues, ends and D or L forms follow the SMILES beside them. *: point of attachment. Cbz = O=C(OCc1ccccc1)*

On to `O=C(O)CCCC[C@@H]1CCSS1` (racemic) [Lipoic acid, lipoic acid], for which the Melanogenesis in the assay with MelanoDerm Skin Model is on record as 2 ± 2%.

As to `C=CC(=O)Nc1cc2c(Nc3ccc(F)c(Cl)c3)ncnc2cc1OCCCN1CCOCC1` [CI-1033, reference compound], the “Pigmentation of MelanoDerms, NRG-1 in the presence of ERBB inhibitor” value in assay [1] is listed as “did not increase the pigmentation”. Moreover, the “Melanin content, inhibitor alone” value with HEM-DP melanocytes (9 days, C39 0.5 μM or CI-1033 2 μM alone) is “did not affect”. The “Melanin content, NRG-1 in the presence of ERBB inhibitor” value with HEM-DP melanocytes (9 days, NRG-1 50 ng/ml with C39 0.5 μM or CI-1033 2 μM) is “remained at the same level as the control”.

As to `CC(C)C[C@@H](C=O)NC(=O)[C@H](CC(C)C)NC(=O)[C@H](CC(C)C)NC(=O)OCc1ccccc1` [MG132, reference compound] (Cbz-Leu-Leu-Leu-aldehyde), the “Level of ERBB2 protein” value in the assay on ERBB2 is “returned to the control level”.

As to “WC-03: 16-mer NRG-1 peptide including amino acids 8-23 of SEQ ID NO: 9 (FMVKDLSNPSRYLCKC)”, in the assay on HEM-DP melanocytes (16-mer peptides 100 nM, every other day for 7 days, n=4), the “Pigmentation (melanin) compared to control” value is “highest increase in pigmentation”.

Take “WC-9: 8-mer peptide PSRYLCKC, amino acids 16-23 of SEQ ID NO: 10”: the Pigmentation entry with HEM-DP melanocytes was “statistically significant increases of pigmentation”.

On to “WC-10: 8-mer peptide LCKCPNEF, amino acids 20-27 of SEQ ID NO: 10”, for which the Pigmentation result in the assay on HEM-DP melanocytes is “statistically significant increases of pigmentation”.
